Reference: patent publication US20240131032A1, “AN ACTIVITY-GUIDED MAP OF ELECTROPHILE-CYSTEINE INTERACTIONS IN PRIMARY HUMAN IMMUNE CELLS” (The Scripps Research Institute, priority 2019, published 2024)

Key:
primary human T cells = test: T cell viability by flow cytometry (near-IR LIVE/DEAD stain); format: cell-based; details: for cytotoxicity: concentration-dependent profiles, at <20 μM
Description: FIG. 4A-4D is an overview of a multidimensional screen to identify elaborated electrophilic compounds that suppress T cell activation. FIG. 4A is a workflow for T-cell activation screen. Primary human T cells were treated with a focused library of elaborated electrophilic compounds (10 μM, structures of compounds in FIG. 12), a positive control immunosuppressive compound (DMF, 50 μM), or DMSO under TCR-stimulating conditions in 96-well plates pre-coated with 5 μg/mL αCD3 and 2 μg/mL αCD28 for 24 h. T cell activation was measured using a combination of markers, including IL2 and IFNγ secretion, as well as surface expression of CD25 and CD69. T cell viability was measured by flow cytometry using a Fixable Near-IR LIVE/DEAD™ Cell Stain. Compounds were considered as active hits if they reduced IL2 cytokine production by >65% with <15% reduction in T cell viability in the cytotoxicity assay compared to DMSO control. […] FIG. 4C are structures of active hit compounds selected for follow-up studies, including two acrylamides (BPK-21, BPK-25), two chloroacetamides (EV-3, EV-93) and DMF as a positive control. FIG. 4D are line graphs showing T cell activation and cytotoxicity profiles for selected hit compounds.
Non-tissue culture treated 96-well plates were pre-coated with αCD3 (5 μg/mL) and αCD28 antibodies (2 μg/mL) in PBS (100 μL/well) and left at 4° C. overnight. Freshly isolated T cells were re-suspended in RPMI media supplemented with 10% FBS, L-glutamine (2 mM), penicillin (100 U/mL), and streptomycin ([…]) at 2×10^6 cells/mL. Compound stocks (200×) in DMSO were diluted to 2× stocks in the working RPMI media in another 96-well plate. The pre-coated 96-well treatment plates were washed with PBS ([…]), T cells (100 μL/well, 2×10^5 cells/well) were then added to the wells, followed by the addition of 2× compound stocks in RPMI media (100 μL). The outer wells of the plates were filled with media without cells to avoid the edge effect in the assay. The treatment was done overnight (24 h) at 37° C. in a 5% CO2 containing incubator. Following the treatment, the cells were transferred to a U-bottom 96-well plate and harvested by centrifugation (600 g, 3 min, 4° C.). The supernatants were kept and stored at −80° C. for further cytokine analysis, while the cells were washed with PBS (2×150 μL) prior to staining for flow cytometry analysis.
Following the PBS washes, the cells were stained with fixable near-IR LIVE/DEAD cell stain (Invitrogen) according to manufacturer's instructions. Briefly, one vial of near-IR LIVE/DEAD dye was resuspended in DMSO (50 μL) and diluted with PBS (1:1000). The diluted stain was added to each well (200 μL) and the cells were incubated for 30 min at room temperature in the dark. After this time, the cells were pelleted (600 g, 3 min, 4° C.), washed once with PBS (200 μL/well) and incubated with a freshly made cocktail of antibodies for the appropriate cell surface markers diluted in PBS containing 2% FBS (1:400 antibody dilution).

FAM213B and HLA-F = test: Expression-based proteomics (TMT-exp) of compound-treated T cells, FAM213B and HLA-F; format: cell-based, human; details: 24 h; >3000 total proteins quantified
Description: FIG. 7B is a scatter plot representation of protein abundance changes caused by BPK-25 (10 μM, 24 h) in two independent replicate experiments, with decreases in NuRD complex components highlighted in red. FIG. 7C is a heatmap of top proteins with decreased abundance in BPK-25-treated T cells showing that the subset of these proteins in the NuRD complex (asterisks) were largely unaltered by other active compounds and blocked in their degradation by co-treatment with the proteasome inhibitor MG132. […] FIG. 7E is a bar graph […] showing time-dependent reductions in NuRD complex members in human T cells treated with BPK-25 (10 μM). Left, representative western blots. Right, quantification of changes in protein. […] FIG. 7G is a heat map showing the changes in cysteine reactivity for NuRD complex members in human T cells treated with BPK-25 and other active compounds.
Freshly isolated T cells (1.6×10^7 cells, 2×10^6 cells/mL in RPMI media) were treated with compound or DMSO for 24 h, pelleted (600 g, 5 min), and washed with PBS (1×10 mL). The cells were then transferred to an Eppendorf tube in additional PBS (1 mL), pelleted (600 g, 5 min), flash frozen, and kept at −80° C. until further analysis. […]
At individual TMT experiment level, the following filters were applied to remove low-quality peptides: removal of non-unique peptides; removal of half-tryptic peptides; removal of peptides with more than one internal miscleaved site; removal of cysteine-containing peptides; removal of peptides with low (<10,000) sum of reporter ion intensities for control channels, and peptides with high variation between the replicate control channels (coefficient of variance >0.5). R values (compound-treated vs. DMSO-treated) were calculated using the reporter ion intensities of compound and DMSO treated TMT channels for each treatment group. […] Proteins were required to have at least two unique quantified peptides in each experiment and were quantified in at least two independent experiments.

NFATc2 = test: NFAT pathway activation in stimulated T cells (western blot of NFATc2); format: cell-based, human; details: 4 h
Description: FIG. 22A and FIG. 22B show the effects of active compounds on NFAT pathway activation. […] FIG. 22C and FIG. 22D show the effects of active compounds on MAPK pathway. […] All treatments were done for 24 h.

| Structure (SMILES) | viability (primary human T cells; electrophilic compounds 10 μM each (DMF 50 μM), 24 h) [%] | cytotoxicity (primary human T cells) | reductions in FAM213B and HLA-F (FAM213B and HLA-F) | reductions in NFATc2 dephosphorylation (NFAT activation) (NFATc2) | NFATc2 expression (NFATc2) |
| --- | --- | --- | --- | --- | --- |
| COC(=O)/C=C/C(=O)OC [DMF, reference compound] | > 85 | – | – | – | – |
| O=C(CCl)N1CCN(S(=O)(=O)c2ccc(-c3ccncc3)cc2)CC1 [EV-3] | – | negligible cytotoxicity | also affected | – | – |
| C=CC(=O)N(Cc1cccc(Cl)c1Cl)c1ccc(Oc2ccccc2)c(C(F)(F)F)c1 [BPK-21] | – | negligible cytotoxicity | also affected | did not appear to impact | – |
| C=CC(=O)N(Cc1cccc(Cl)n1)c1ccc(C(=O)Nc2ccccc2)nc1 [BPK-25] | – | negligible cytotoxicity | > 50% | – | reduced NFATc2 expression |
